What is called % inhibition is the drop in the measured response relative to a control, in per cent. By inhibition is commonly meant the share of the control response that was lost under treatment.

The results in this text go back to article PMC7251097, “Aspartate/asparagine-β-hydroxylase: a high-throughput mass spectrometric assay for discovery of small molecule inhibitors” (Scientific Reports, 2020).

Counter-ions that a name gives are not always drawn. Like-named read-outs stand apart in the source and are kept apart here.

The target in this experiment is T1, His6-AspH315–758 (human aspartate/asparagine-β-hydroxylase, AspH) (Homo sapiens, UniProt Q12797).
T1 construct: N-Terminally His6-tagged human AspH315–758 (His6-AspH315–758) was produced in E. coli BL21 (DE3) cells; made in house; host or cells: E. coli BL21 (DE3), pET-28a(+) vector
T1 sequence (Q12797 315-758): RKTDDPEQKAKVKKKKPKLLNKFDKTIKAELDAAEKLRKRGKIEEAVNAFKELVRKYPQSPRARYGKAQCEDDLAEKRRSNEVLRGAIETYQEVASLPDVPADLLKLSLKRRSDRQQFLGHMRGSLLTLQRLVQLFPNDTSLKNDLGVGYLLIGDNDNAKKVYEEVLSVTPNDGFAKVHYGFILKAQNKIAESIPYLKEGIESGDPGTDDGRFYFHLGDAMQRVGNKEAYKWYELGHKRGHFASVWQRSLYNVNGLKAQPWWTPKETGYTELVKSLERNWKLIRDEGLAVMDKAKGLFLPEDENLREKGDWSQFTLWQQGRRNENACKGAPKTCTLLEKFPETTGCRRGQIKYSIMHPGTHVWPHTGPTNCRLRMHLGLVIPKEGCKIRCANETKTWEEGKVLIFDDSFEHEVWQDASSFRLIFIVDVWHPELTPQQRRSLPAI
Briefly: SPE-MS AspH inhibition assay (LOPAC screen at fixed 20 μM and IC50 dose-response), hydroxylation of cyclic peptide hFX-CP101–119. The format is biochemical.

[1] abbreviates: LOPAC Plate 4, compound at 20 uM, substrate conversion.
The mark [2] stands for this setting: LOPAC compound at fixed 20 uM, plate 1, normalised to DMSO and 2,4-PDCA controls.
[3] abbreviates: LOPAC compound at fixed 20 uM, substrate conversion, plate 1.
The mark [4] stands for this setting: LOPAC compound at 20uM, plate 2, conversion of substrate peptide.
The mark [5] stands for this setting: LOPAC compound at 20uM, plate 2, normalised to DMSO and 2,4-PDCA controls.

For the compound `CC(C)c1cccc(C(C)C)c1N1C(=O)c2ccc(O)cc2C1=O` [5HPP-33], the “% conversion” value came to 25.79%.

Turning to `CC(=O)[C@H]1CC[C@H]2[C@@H]3CC[C@H]4C[C@H](O)CC[C@]4(C)[C@H]3C(=O)C[C@]12C` [5alpha-Pregnan-3alpha-ol-11,20-dione], the “Plate 3 (% conversion)” value worked out at 35.35%.

On to `CC(=O)[C@H]1CC[C@H]2[C@@H]3CC[C@H]4C[C@H](O)CC[C@]4(C)[C@H]3CC[C@]12C` [5alpha-Pregnan-3alpha-ol-20-one], for which the “% conversion” value was 26.94%.

As for `O=c1[nH]c2ccccc2c2ccccc12` [6(5H)-Phenanthridinone], the “% inhibition” value (LOPAC Plate 4, compound at 20 uM) is given as -0.0747%. Under setting [1], the “% conversion” value is recorded as 36.50%.

`NCCCCCC(=O)O` [6-Aminohexanoic acid]: the “Plate 1 (% inhibition)” value under setting [2] is -0.76%. Besides, the “Plate 1 (% conversion)” value under setting [3] is recorded as 36.13%.

Regarding `COc1cc2c(CCNC(C)=O)c[nH]c2cc1O` [6-Hydroxymelatonin], the “Plate 2 (% conversion)” value under setting [4] worked out at 36.89%. Moreover, the “Plate 2 (% inhibition)” value under setting [5] is on record as -2.79%.

Consider `CCCCCCCCCCC/C=C\C(C)(C)/C=C\CCCC(=O)O` [7,7-Dimethyl-(5Z,8Z)-eicosadienoic acid], for which, under setting [4], the “Plate 2 (% conversion)” value amounted to 5.42%. Moreover, the “Plate 2 (% inhibition)” value under setting [5] turned out to be 91.20%.

Regarding `O.O=c1cc(-c2ccccc2)oc2c(O)c(O)ccc12` [7,8-Dihydroxyflavone hydrate, reference compound], the “% conversion” value is on record as 2.70% and 20 µM produced 99% inhibition. Besides, under “read-out: Inhibition at 20 µM [%]”, the inhibition at 20 µM came to 99%.

Consider `O=[N+]([O-])c1cccc2cn[nH]c12` [7-Nitroindazole], for which, where the note is “LOPAC compound at 20uM, plate 3, conversion of substrate peptide”, the “Plate 3 (% conversion)” value was 35.80%.

In the case of `Cn1c(=O)c2c(nc(C=Cc3cccc(Cl)c3)n2C)n(C)c1=O` [8-(3-Chlorostyryl)caffeine], the “Plate 2 (% conversion)” value came to 38.57%. Also, the “Plate 2 (% inhibition)” value (20 µM) is reported as -7.82%.

For the compound `Cn1c(=O)c2[nH]c(-c3ccc(S(=O)(=O)O)cc3)nc2n(C)c1=O` [8-(p-Sulfophenyl)theophylline], under setting [2], the “Plate 1 (% inhibition)” value was 51.62%. Under setting [3], the “Plate 1 (% conversion)” value is listed as 18.54%.

Regarding `Nc1nc2c(nc(Br)n2[C@@H]2O[C@@H]3COP(=O)([O-])O[C@H]3[C@H]2O)c(=O)[nH]1.[Na+]` [8-Bromo-cGMP sodium], the “Plate 1 (% inhibition)” value under setting [2] was found to be 5.25%. Moreover, the “Plate 1 (% conversion)” value under setting [3] came out at 34.11%.

With `Cn1c(=O)c2[nH]c(C3CCCC3)nc2n(C)c1=O` [8-Cyclopentyl-1,3-dimethylxanthine], the “Plate 2 (% conversion)” value under setting [4] was 36.70%. Also, the “Plate 2 (% inhibition)” value under setting [5] was -2.21%.

Regarding `CCCn1c(=O)c2[nH]c(C3CCCC3)nc2n(CCC)c1=O` [8-Cyclopentyl-1,3-dipropylxanthine], the “Plate 2 (% conversion)” value was 38.65%. For the same compound, the “Plate 2 (% inhibition)” value (20 µM) was -8.06%.

Regarding `Nc1ncnc2c1ncn2C1CCCC1` [9-cyclopentyladenine], under setting [2], the “Plate 1 (% inhibition)” value was determined as 2.94%. Besides, under setting [3], the “Plate 1 (% conversion)” value was determined as 34.88%.

As to `CC1=C(/C=C/C(C)=C/C=C/C(C)=C\C(=O)O)C(C)(C)CCC1` [13-cis-retinoic acid], the “% conversion” value under setting [1] is listed as 23.26%.

For `N[C@H](C(=O)O)[C@H]1C[C@@H]1C(=O)O` [(2S,1S,2S)-2-(carboxycyclopropyl)glycine], the “Plate 2 (% conversion)” value under setting [4] is on record as 32.34%. For the same compound, the “Plate 2 (% inhibition)” value under setting [5] was found to be 10.80%.

Take `CC(C)C[C@H]1C(=O)N2CCC[C@H]2[C@]2(O)O[C@](NC(=O)[C@@H]3C=C4c5cccc6[nH]c(Br)c(c56)C[C@H]4N(C)C3)(C(C)C)C(=O)N12.CS(=O)(=O)O` [(+)-Bromocriptine methanesulfonate]: the “Plate 1 (% conversion)” value amounted to 29.77% and the “Plate 1 (% inhibition)” value was 18.18%.

Take `CN(C)CC[C@@H](c1ccc(Br)cc1)c1ccccn1` [(+)-Brompheniramine maleate]: the “Plate 1 (% inhibition)” value under setting [2] was found to be 1.01%. Moreover, the “Plate 1 (% conversion)” value under setting [3] amounted to 35.53%.

`CN(C)CC[C@@H](c1ccc(Cl)cc1)c1ccccn1` [(+)-Chlorpheniramine maleate]: the “Plate 1 (% inhibition)” value under setting [2] is -13.88%. The “Plate 1 (% conversion)” value under setting [3] is 40.53%.
